Measured values published in PubChem BioAssay (NCI).
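Following 48 hours of exposure in 96-well plates, responses at five concentrations were used to interpolate endpoints linearly. GI50: concentration for 50% inhibition of growth. TGI: concentration producing complete growth inhibition.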

How the values were obtained:
Experiment in all cases: NCI anticancer screen, dose series, 48 h
A549 NSCLC = test system: A549 NSCLC
LOX IMVI melanoma = test system: LOX IMVI melanoma
HCT-116 colon = test system: HCT-116 colon
HL-60(TB) leukemia = test system: HL-60(TB) leukemia
HOP-92 NSCLC = test system: HOP-92 NSCLC
UACC-62 melanoma = test system: UACC-62 melanoma
SF-295 CNS = test system: SF-295 CNS
RPMI-8226 leukemia = test system: RPMI-8226 leukemia
SR leukemia = test system: SR leukemia
KM12 colon = test system: KM12 colon

Structure (SMILES)	GI50 (A549 NSCLC) [µM]	TGI (A549 NSCLC) [µM]	GI50 (LOX IMVI melanoma) [µM]	TGI (LOX IMVI melanoma) [µM]	GI50 (HCT-116 colon) [µM]	TGI (HCT-116 colon) [µM]	GI50 (HL-60(TB) leukemia) [µM]	GI50 (HOP-92 NSCLC) [µM]	TGI (HOP-92 NSCLC) [µM]	GI50 (UACC-62 melanoma) [µM]	TGI (UACC-62 melanoma) [µM]	GI50 (SF-295 CNS) [µM]	TGI (SF-295 CNS) [µM]	GI50 (RPMI-8226 leukemia) [µM]	TGI (RPMI-8226 leukemia) [µM]	GI50 (SR leukemia) [µM]	TGI (HL-60(TB) leukemia) [µM]	GI50 (KM12 colon) [µM]	TGI (KM12 colon) [µM]	TGI (SR leukemia) [µM]
COc1ccc2nc3cc([N+](=O)[O-])ccc3c(NCCCN(C)C)c2c1	0.278	10.1	0.249	1.08	0.036	1.25	0.0953	0.149	0.651	0.384	1.64	0.35	2.39	0.038	0.437	0.0794	–	–	–	–
N#CCN/C=C\C(=O)c1ccc(Cl)cc1	> 100	> 100	31.5	> 100	29.9	> 100	14.2	–	–	15.7	49.3	28	> 100	22.6	> 100	11.5	> 100	36.5	> 100	44.1
CCN(CC)CCCNC(=O)c1c2c(n3ccccc13)C(=O)c1ncccc1C2=O	1.17	2.84	0.391	1.8	0.25	1.09	–	2.22	4.87	0.472	2.21	1.07	6.29	3.21	> 100	0.485	–	0.44	6.33	> 100
CNC(=O)Cc1nc(-c2cccc(NS(=O)(=O)c3c(F)cccc3F)c2F)c(-c2ccnc(Nc3ccccc3)n2)s1	8.53	> 50	0.0917	5.38	1.05	> 29.2	3.96	0.355	> 14.4	–	–	20.5	> 50	14.3	> 47.9	8.07	> 50	14.2	> 50	> 50
COC(=O)c1cc(O)c2c(c1C(=O)OC)C[C@H]1[C@@H]3CC=C4C[C@@H](O)CC[C@]4(C)[C@H]3CC[C@]21C	3.06	11.7	–	–	3.09	14.6	3.03	2.59	8.2	–	–	1.72	4.4	1.57	4.96	3.41	6.93	2.91	12.2	> 100
COc1ccc2c(c1)CC[C@H](O)/C2=C/c1cc(OC)c(OC)c(OC)c1	0.245	> 100	0.207	> 100	0.104	> 100	0.192	16.3	> 100	0.0403	> 100	–	–	1.82	> 51.3	0.0546	0.86	0.093	> 100	> 100
C=C[C@@]1(O)CCCC2=C(C(=O)OCC)CC[C@]21C	–	> 100	–	–	–	–	–	–	> 100	–	–	–	> 100	–	> 100	–	> 100	–	> 100	> 100
O=Cc1cccc2c1Oc1c(cccc1C(=O)O)S2	–	> 100	–	> 100	–	> 100	–	–	> 100	–	> 100	–	> 100	–	63.3	–	–	–	44.3	> 100
O=C1C(Cl)C(c2ccccc2O)N1n1cnc2ccccc2c1=O (stereo unspecified)	–	> 100	–	> 100	–	> 100	–	–	–	–	> 100	–	> 100	–	> 100	–	> 100	–	> 100	> 100
O=[N+]([O-])C1Cc2ccccc2OC1c1ccccc1 (stereo unspecified)	–	> 100	–	31.9	–	> 100	–	–	> 100	–	> 100	–	> 100	–	–	–	> 100	–	> 100	66.6
Cc1cc(N2CCSCC2)nc(NC2CCCC(Nc3ccnc4cc(Cl)ccc34)C2)n1 (stereo unspecified)	2.88	8.91	–	–	–	–	–	1.65	3.45	1.94	3.5	1.7	3.27	1.64	4.39	0.452	–	1.94	4.25	2.35
O=c1[nH]c2cc(Cl)ccc2nc1/C(=N\O)C(O)c1ccc([N+](=O)[O-])cc1 (stereo unspecified)	–	> 100	–	> 100	–	> 100	–	–	–	–	> 100	–	> 100	–	> 100	–	> 100	–	> 100	> 100
